Assay in all cases: inhibition of tumour cell growth, NCI panel, 48 h
For assay [1], the system named is A549.
Assay [2] deals with CAKI-1.
In assay [3] the test system is COLO 205.
Assay [4] concerns DU-145.
Assay [5] relates to HL-60.
Assay [6] relates to HOP-92.
The test system of assay [7] is HT-29.
For assay [8], the system named is Hs-578T.
Assay [9] deals with K562.
Assay [10] deals with KM12.
In assay [11] the test system is LOX IMVI.
Assay [12] concerns MCF7.
Assay [13] relates to Malme-3M.
For assay [14], the system named is OVCAR-8.
For assay [15], the system named is RPMI-8226.
The subject of assay [16] is SF-295.
For assay [17], the system named is SK-MEL-5.
Assay [18] deals with SK-OV-3.
The test system of assay [19] is SR.
Assay [20] deals with UO-31.

The structures appear in SMILES notation.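 Cultured in 96-well plates, cells were exposed to test compound for 48 hours across five concentrations. GI50 is the concentration that inhibits growth by half.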 Calls of active or inactive are those of the source. No stated cut-off is given here; in the data, active = GI50 up to about 1.1 µM and inactive = higher.

Turning to `Cn1cnc2c(NCc3ccccc3)nc(NCCO)nc21` [OLOMOUCINE], the GI50 was 43.9 µM (inactive) in assay [1]; 33.7 µM (inactive) in assay [2]; 30.1 µM (inactive) in [3]; 34.1 µM (inactive) in assay [4]; 36.9 µM (inactive) in assay [5]; 61.2 µM (inactive) in assay [6]. Further, the GI50 in [7] is 71.4 µM (inactive); in [8], 69.5 µM (inactive); in assay [9] it was 107 µM (inactive); in assay [10], 35 µM (inactive); in [11] it was 24 µM (inactive); in assay [12], 39.7 µM (inactive). Further, the GI50 in assay [13] was 98.2 µM (inactive); in assay [14], 66.2 µM (inactive); in [15], 53.8 µM (inactive); in [16] it was 41.1 µM (inactive); in assay [17], 40.6 µM (inactive); in assay [18], > 95.5 µM (inactive). The GI50 was 29.7 µM (inactive) in [19] and 31.4 µM (inactive) in [20].

Turning to `Nc1nc2[nH]cnc2c(=S)[nH]1` [THIOGUANINE], the GI50 is 3.63 µM (inactive) in assay [1]; 0.621 µM (active) in assay [2]; 1.75 µM (inactive) in assay [3]; 0.776 µM (active) in assay [4]; 1.11 µM (active) in assay [5]; 0.818 µM (active) in assay [6]. Besides, the GI50 was 1.13 µM (inactive) in assay [7]; 6.28 µM (inactive) in [8]; 0.385 µM (active) in assay [9]; 1.71 µM (inactive) in assay [10]; 0.207 µM (active) in [11]; 0.701 µM (active) in assay [12]. The GI50 in [13] is 1.28 µM (inactive); in [14] it was 0.687 µM (active); in assay [15], 0.438 µM (active); in assay [16] it was 1.08 µM (active); in assay [17], 3.5 µM (inactive); in assay [18], 0.548 µM (active). The GI50 was 0.182 µM (active) in assay [19] and 1.56 µM (inactive) in [20].

With `CC1(c2nc3cc(Cl)c(Cl)cc3[nH]2)CCC(C(=O)O)C(C)(C)O1` (stereo not given), the GI50 in assay [1], in [2], in [3], in [4], in assay [5] and in assay [6] was > 100 µM (inactive) in each case. Further, the GI50 in assay [7], in assay [8], in assay [9], in assay [10], in assay [11] and in assay [12] was > 100 µM (inactive) in each case. In addition, the GI50 in [13], in assay [14], in assay [15], in assay [16], in assay [17] and in assay [18] was > 100 µM (inactive) in each case. In addition, the GI50 in assay [19] was > 100 µM (inactive); in assay [20], 34.8 µM (inactive).

Consider `CN(C(=O)CCC(=O)O)c1ccccc1C(=O)O`, for which the GI50 in [1], in assay [2], in assay [3], in [4], in assay [5] and in assay [6] was > 100 µM (inactive) in each case. Moreover, the GI50 in [7], in assay [8], in assay [9], in assay [10], in [11] and in assay [12] was > 100 µM (inactive) throughout. For the same molecule, the GI50 in [13], in assay [14], in assay [15], in [16], in [17] and in [18] was > 100 µM (inactive) in each case. For the same molecule, the GI50 in assay [19] and in [20] was > 100 µM (inactive) throughout.

Consider `O=[N+]([O-])/C(C(Cl)=C(Cl)Cl)=C(/Br)SCc1ccccc1`, for which the GI50 was 5.85 µM (inactive) in assay [1]; 2 µM (inactive) in [2]; 1.6 µM (inactive) in assay [3]; 12.9 µM (inactive) in assay [4]; 0.222 µM (active) in [5]; 1.77 µM (inactive) in assay [6]. In addition, the GI50 is 2.11 µM (inactive) in assay [7]; 11.7 µM (inactive) in assay [8]; 0.467 µM (active) in assay [9]; 13.4 µM (inactive) in [10]; 1.56 µM (inactive) in assay [11]; 2.84 µM (inactive) in [12]. Moreover, the GI50 in assay [13] was 2.88 µM (inactive); in [14], 2.61 µM (inactive); in assay [15], 0.656 µM (active); in assay [16] it was 15.9 µM (inactive); in assay [17] it was 2.96 µM (inactive); in assay [18], 22 µM (inactive). For the same molecule, the GI50 in assay [19] was 0.375 µM (active); in assay [20] it was 2.45 µM (inactive).

Take `Cc1cc(C)c2c(=O)n(CN3CCC(O)(c4ccccc4)CC3)sc2n1`: the GI50 is > 100 µM (inactive) in assay [1]; 43.5 µM (inactive) in assay [2]; 39.2 µM (inactive) in [3]; 38.3 µM (inactive) in assay [4]; 20 µM (inactive) in assay [5]; > 100 µM (inactive) in assay [6]. For the same molecule, the GI50 in assay [7] was 28.4 µM (inactive); in [8] it was 40 µM (inactive); in assay [9] it was 24 µM (inactive); in assay [10], > 100 µM (inactive); in assay [11] it was 31.1 µM (inactive); in assay [12], 47.9 µM (inactive). Moreover, the GI50 in assay [13] is 17.6 µM (inactive); in assay [14] it was 30.1 µM (inactive); in [15] it was 23.4 µM (inactive); in assay [16], > 100 µM (inactive); in [17] it was 97.3 µM (inactive); in assay [18], > 100 µM (inactive). The GI50 was 29.9 µM (inactive) in assay [19] and 17.2 µM (inactive) in assay [20].

With `O=C(Nc1cccc(NC(=O)C(=O)C2CCC3=C(Sc4ccccc4N3)C2=O)n1)C(=O)C1CCC2=C(Sc3ccccc3N2)C1=O` (stereo not given), the GI50 in [1] is > 100 µM (inactive); in assay [2], 38.3 µM (inactive); in [3], 37.2 µM (inactive); in assay [4] it was > 100 µM (inactive); in [5], 39.5 µM (inactive); in assay [6] it was > 100 µM (inactive). Moreover, the GI50 in assay [7] is 67.9 µM (inactive); in assay [8], 53 µM (inactive); in [9], 43.7 µM (inactive); in [10] it was 29.2 µM (inactive); in [11] it was 73.1 µM (inactive); in [12] it was 75.7 µM (inactive). In addition, the GI50 is > 100 µM (inactive) in [13]; 43.8 µM (inactive) in assay [14]; 40.2 µM (inactive) in assay [15]; 42.6 µM (inactive) in assay [16]; 41.2 µM (inactive) in assay [17]; > 100 µM (inactive) in [18]. The figures for the GI50 in [19] and in assay [20] were 71.4 µM (inactive) and 47.3 µM (inactive), respectively.
